Data from PubChem BioAssay AID1918955 (Molecular Pharmacology Branch, DTP, NCI, 2023).
“And” between values parts separate entries of the source, which are not always exact repeats. Equal entries are not always repeated.

Test system: NCI/ADR-RES complex spheroid viability
Test: Anticancer human tumor NCI/ADR-RES cell line growth inhibition;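 note: spheroids exposed to compounds for 7 days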;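 for viability, T/C: 100% = DMSO vehicle treated spheroids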
Details: for viability, T/C: stronger effect = lower value
Text: Multicellular complex tumor spheroid response to LSD1 Inhibitor Iadademstat in combination with a variety of drugs and investigational agents in selected tumor cell lines
The current study was undertaken to assess response to LSD1 inhibitors in combination with standard-of-care drugs and investigational agents in solid tumor complex spheroid models as well as in the K-562 leukemia. Complex spheroids include a stromal component modeled by human endothelial cells (HUVEC) and fibroblasts modeled by human mesenchymal stem cells (MSCs). The concentration ranges selected for each drug and investigational agent were based upon clinically achievable concentrations if the clinical Cmax of the agent was known.
Compounds. The drugs and investigational agents used in this study are listed on Table 1. All of the agents used, including staurosporine (NSC755774) and gemcitabine (NSC613327), were obtained from the Developmental Therapeutics Program, NCI. FDA-approved anticancer drugs are available from the NCI at http://dtp.nci.nih.gov/branches/dscb/oncology_drugset_explanation.html. Drugs and investigational agents were >95% pure by proton nuclear magnetic resonance (NMR) and liquid chromatography/mass spectrometry (LC/MS). Stock solutions were prepared at 400x in DMSO, stored at -70 degrees C, and diluted in fresh medium prior to their use. The final concentration of DMSO in cell culture wells never exceeded 0.25% (v/v). The FDA-approved anticancer drug set is available from the Developmental Therapeutics Program at https://dtp.cancer.gov/organization/dscb/obtaining/available_plates.htm. All drugs and investigational agents were tested over a range starting from a high concentration at or near the clinical Cmax and decreasing in half-log increments. If the clinical Cmax for an agent had not been determined, the highest concentration tested was 10 microM.
Cell Lines. The patient-derived cancer cell (PDC) lines: 292921-168-R-J2-PDC, K24384-001-R-PDC, and 521955-158-R2-J5-PDC pancreatic carcinomas, 556581-035-R-J1 ovarian carcinoma, 324938-238-R-J1-PDC, 855422-203-R-J1-PDC and 883617-216-R-J1-PDC urothelial bladder carcinomas, 743489-274-T-PDC renal cell carcinoma, 138582-R-J1 Merkel cell tumor, K60290-347-R-J1 and K57222-313-R-J1-PDC glioblastomas, 653999-131-R-J2-PDC, LG0703-F948-PDC, and 349418-098-R-PDC non-small cell lung carcinomas, 885512-296-R-J2-PDC, 171881-019-R-J1-PDC breast carcinomas and 186277-243-T-J2-PDC and 233499-124-R-J2-PDC colon carcinomas were obtained from the NCI Patient-Derived Models Repository (PDMR, https://pdmr.cancer.gov). The established cell lines NCI/ADR-RES (RRID:CVCL_14520 and OVCAR-5 (RRID:CVCL_1628) ovarian carcinomas, 786-O (RRID:CVCL_1051) and A498 (RRID:CVCL_A498) renal cell carcinoma, NCI-H211 (ATCC, cat. CRL-5824; RRID:CVCL_1529), NCI-H196 (ATCC, cat. CRL-5823, RRID:CVCL_1509), SW 1271 (ATCC, cat. CRL-2177, RRID:CVCL_1716) and NCI-H1876 (ATCC, cat. CRL-5902, RRID:CVCL_1503) small cell lung carcinomas, MDA-MB-231 (RRID:CVCL_0062) and MDA-MB-468 (RRID:CVCL_0419)breast carcinomas (10-12). Pooled donor human umbilical vein endothelial cells (HUVEC, Lonza, cat. CC-2519) and human mesenchymal stem cells (hMSC, Lonza, cat. PT-2501) were purchased from Lonza (Walkersville, MD).
Cell Culture. All cells were maintained in an incubator at 37 degrees C and 5% CO2 with 95% humidity. The PDC lines were cultured according to standard operating procedures established by the NCI PDMR (https://pdmr.cancer.gov). Briefly all PDCs were thawed and cultured in Matrigel-coated flasks prepared with a working solution of 1X Ham's F-12 nutrient mix, without supplementation (Invitrogen, Waltham, MA, cat. 11765054), 100 U/mL penicillin-streptomycin (Invitrogen, cat. 15140122), and 2.5% Matrigel (Corning Inc., Corning, NY, cat. 354248) for the first three passages. […]

[1] = curve of first compound, second compound 0.1 µM
[2] = curve of first compound, second compound 0.316 µM
[3] = curve of first compound, second compound 1 µM
[4] = curve of first compound, second compound 3.16 µM
[5] = curve of first compound, second compound 10 µM
[6] = second compound 0.1 µM, first compound 0.00949 µM
[7] = second compound 0.1 µM, first compound 0.03 µM
[8] = second compound 0.1 µM, first compound 0.0949 µM
[9] = second compound 0.1 µM, first compound 0.3 µM
[10] = second compound 0.316 µM, first compound 0.00949 µM
[11] = second compound 0.316 µM, first compound 0.03 µM
[12] = second compound 0.316 µM, first compound 0.0949 µM
[13] = second compound 0.316 µM, first compound 0.3 µM
[14] = second compound 1 µM, first compound 0.00949 µM
[15] = second compound 1 µM, first compound 0.03 µM
[16] = second compound 1 µM, first compound 0.0949 µM
[17] = second compound 1 µM, first compound 0.3 µM
[18] = second compound 3.16 µM, first compound 0.00949 µM
[19] = second compound 3.16 µM, first compound 0.03 µM
[20] = second compound 3.16 µM, first compound 0.0949 µM
[21] = second compound 3.16 µM, first compound 0.3 µM
[22] = second compound 10 µM, first compound 0.00949 µM
[23] = second compound 10 µM, first compound 0.03 µM
[24] = second compound 10 µM, first compound 0.0949 µM
[25] = second compound 10 µM, first compound 0.3 µM

SMILES: NS(=O)(=O)OCC1CC(n2ccc3c(NC4CCc5ccccc54)ncnc32)CC1O (stereo not drawn) + NC1CCC(NC2CC2c2ccccc2)CC1
- IC50 [1]: 0.986 µM
- IC50 [2]: 0.89 µM
- IC50 [3]: 0.74 µM
- IC50 [4]: 0.66 µM
- IC50 [5]: 0.353 µM
- viability, T/C [6]: 99.1%
- viability, T/C [7]: 98.9%
- viability, T/C [8]: 84.9%
- viability, T/C [9]: 73.8%
- viability, T/C (second compound 0.1 µM, first compound 0.949 µM): 52.3%
- viability, T/C (second compound 0.1 µM, first compound 3 µM): 14.4%
- viability, T/C [10]: 99.2%
- viability, T/C [11]: 92.4%
- viability, T/C [12]: 87.5%
- viability, T/C [13]: 74.7%
- viability, T/C (second compound 0.316 µM, first compound 0.949 µM): 47.9%
- viability, T/C (second compound 0.316 µM, first compound 3 µM): 15.7%
- viability, T/C [14]: 109%
- viability, T/C [15]: 95.6%
- viability, T/C [16]: 86.5%
- viability, T/C [17]: 70.3%
- viability, T/C (second compound 1 µM, first compound 0.949 µM): 43.3%
- viability, T/C (second compound 1 µM, first compound 3 µM): 16.8%
- viability, T/C [18]: 93.6%
- viability, T/C [19]: 93%
- viability, T/C [20]: 86.2%
- viability, T/C [21]: 70.8%
- viability, T/C (second compound 3.16 µM, first compound 0.949 µM): 40.4%
- viability, T/C (second compound 3.16 µM, first compound 3 µM): 20.4%
- viability, T/C [22]: 87.3%
- viability, T/C [23]: 86.8%
- viability, T/C [24]: 73.8%
- viability, T/C [25]: 50.5%
- viability, T/C (second compound 10 µM, first compound 0.949 µM): 31.3%
- viability, T/C (second compound 10 µM, first compound 3 µM): 7.61%

SMILES: NC1CC1c1ccc(-c2cccc(O)c2)cc1 (stereo not drawn)
- viability, T/C (compound 0.1 µM): 99.3% and 104%
- viability, T/C (compound 0.316 µM): 105% [middle of 24 runs]
- viability, T/C (compound 1 µM): 99.4% [middle of 24 runs]
- viability, T/C (compound 3.16 µM): 97.5% [middle of 25 runs]
- viability, T/C (compound 10 µM): 86.9% [middle of 25 runs]
- IC50 (compound alone, run of 12/07/2021): > 10 µM

SMILES: Nc1ccn(C2OC(CO)C(O)C2(F)F)c(=O)n1 (stereo not drawn) + NC1CCC(NC2CC2c2ccccc2)CC1
- IC50 [1]: < 0.000949 µM
- IC50 [2]: < 0.000949 µM
- IC50 [3]: < 0.000949 µM
- IC50 [4]: < 0.000949 µM
- IC50 [5]: < 0.000949 µM
- viability, T/C (second compound 0.1 µM, first compound 0.000949 µM): 2.74%
- viability, T/C (second compound 0.1 µM, first compound 0.003 µM): 4.03%
- viability, T/C [6]: 2.54%
- viability, T/C [7]: 2.78%
- viability, T/C [8]: 2.85%
- viability, T/C [9]: 3.22%
- viability, T/C (second compound 0.316 µM, first compound 0.000949 µM): 4.09%
- viability, T/C (second compound 0.316 µM, first compound 0.003 µM): 4.64%
- viability, T/C [10]: 2.74%
- viability, T/C [11]: 3.17%
- viability, T/C [12]: 1.83%
- viability, T/C [13]: 5.17%
- viability, T/C (second compound 1 µM, first compound 0.000949 µM): 3.13%
- viability, T/C (second compound 1 µM, first compound 0.003 µM): 3.5%
- viability, T/C [14]: 3.1%
- viability, T/C [15]: 2.71%
- viability, T/C [16]: 2.01%
- viability, T/C [17]: 1.76%
- viability, T/C (second compound 3.16 µM, first compound 0.000949 µM): 2.3%
- viability, T/C (second compound 3.16 µM, first compound 0.003 µM): 3.42%
- viability, T/C [18]: 2.96%
- viability, T/C [19]: 1.75%
- viability, T/C [20]: 0.86%
- viability, T/C [21]: 2.49%
- viability, T/C (second compound 10 µM, first compound 0.000949 µM): 1.69%
- viability, T/C (second compound 10 µM, first compound 0.003 µM): 2.17%
- viability, T/C [22]: 2.05%
- viability, T/C [23]: 2.1%
- viability, T/C [24]: 5.19%
- viability, T/C [25]: 0.69%

SMILES: O=C(c1cc(Cc2n[nH]c(=O)c3ccccc23)ccc1F)N1CCN(C(=O)C2CC2)CC1
- viability, T/C (compound 0.0316 µM): 102%
- viability, T/C (compound 0.1 µM): 102% and 99.6%
- viability, T/C (compound 0.316 µM): 104% and 102%
- viability, T/C (compound 1 µM): 105% and 97.3%
- viability, T/C (compound 3.16 µM): 90.7% and 95.4%
- viability, T/C (compound 10 µM): 89.6% and 85%
- IC50 (curve of compound): > 10 µM
